From patent publication US11540981B2, “Nanoemulsion formulation with improved stability and cell penetration” (BIOFRONTERA BIOSCIENCE GMBH, priority 2006, dated 2023)

Tests used:
[1] = Phase II clinical study: pharmacokinetic assessment of systemic plasma and urine levels; conditions: ALA-treated patients, compared with naturally occurring physiological values in the same individuals
[2] = high concentrations required for clinical application, neutral to basic pH range; cited from earlier work
[3] = 25° C.; cited from earlier work

plasma concentrations of ALA and its metabolite protoporphyrin IX [1] | urine concentrations of ALA and its metabolite protoporphyrin IX [1] | Structure (SMILES) | stability in aqueous solutions [2] | viscosity [3] [cp]
not increased | not increased | NCC(=O)CCC(=O)O [ALA, 5-aminolevulinic acid] | unstable | –
– | – | CC(C)O [isopropanol] | – | 2.32
– | – | CCO [ethanol] | – | 1.10
